The text below walks through data of patent publication US12123010B2, “Plants having increased tolerance to herbicides” (BASF SE, priority 2017, dated 2024).

The test relates to Transgenic T2 Corn plants harbouring PPO inhibitor tolerance trait and J553 non transgenic. The experiment in a line: Corn Trial, post spray, injury score 14 DAT. It counts as in vivo. As for the experimental part:
Immature embryos are transformed according to the procedure outlined in Peng et al. (WO2006/136596). Plants are tested for the presence of the T-DNA by Taqman analysis with the target being the nos terminator which is present in all constructs. Healthy looking plants are sent to the greenhouse for hardening and subsequent spray testing. The plants are individually transplanted into MetroMix 360 soil in 4″ pots. Once in the greenhouse (day/night cycle of 27° C./21° C. with 14 hour day length supported by 600 W high pressure sodium lights), they are allowed to grow for 14 days. TO or T1 plants are sprayed with a treatment of the uracilpyridines as disclosed SUPRA and photosynthesis inhibitor diuron as negative control. Herbicide injury evaluations are taken at 7, 14 and 21 days after treatment. Herbicide injury evaluations are taken 2, 7, 14 and 21 days post-spray to look for injury to new growth points and overall plant health. The top survivors are transplanted into gallon pots filled with MetroMix 360 for seed production.
Transgenic T2 Corn plants harbouring PPO inhibitor tolerance trait, were sprayed post with the indicated amount of uracilpyridine+1% (v/v) MSO. Evaluation performed 14 Days After Treatment (DAT) and shown as injury (0-9) relative to non-transgenic treated plants.
Injury Scale: 0-9, 0=no injury, 9=maximum injury. Note: segregating lines.

With `CCOC(=O)COc1ccccc1Oc1nc(-n2c(=O)cc(C(F)(F)F)n(C)c2=O)c(F)cc1Cl` [Uracilpyridine 4, ethyl 2-[2-[[3-chloro-5-fluoro-6-[3-methyl-2,6-dioxo-4-(trifluoromethyl)pyrimidin-1-yl]-2-pyridyl]oxy]phenoxy]acetate], the “injury (0-9)” value is, setting by setting: (25 g/ha + 1% MSO) 7; (50 g/ha + 1% MSO) 7.
